Experimental data reported in patent publication US20080009418A1, “Selective Inhibitors” (Alchemia LTD., priority 2004, published 2008).

How the values were obtained:
Settings in all cases: compound at 10 μM
Human δ-opioid (DOP) = molecular target: T1, Human δ-opioid (DOP) (Homo sapiens, UniProt P41143); assay: Radioligand binding, human δ-opioid (DOP) membranes, FlashPlate, [3H]-Bremazocine
T1 construct: purchased Perkin Elmer Biosignal
How it was run: (§1)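 Cloned human receptor membranes were coated onto FlashPlate wells and incubated with radioligand and compound (added from a 0.5 mM DMSO daughter plate) for 1 hour at room temperature in the dark. Scintillation counting gave percent inhibition, with DMSO defining total and reference ligand defining non-specific binding.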

Human κ-Opioid (KOP) = molecular target: T2, Human κ-Opioid (KOP) (Homo sapiens, UniProt P41145); assay: Radioligand binding, human κ-opioid (KOP) membranes, filtration, [3H]-Diprenorphine
T2 construct: purchased Perkin Elmer Biosignal
How it was run: (§2)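 Filtration binding on cloned human receptor membranes (1 Unit/well), [125I]-Substance P for NK1 and [3H]-Diprenorphine for KOP, 1 h at room temperature. Filters PEI-presoaked, washed with cold 50 mM Tris-HCl pH 7.4, counted by scintillation; percent inhibition calculated, reference ligand defining non-specific binding.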

Human Melanocortin (MC3) = molecular target: T3, Human Melanocortin (MC3) (Homo sapiens, UniProt P41968); assay: Radioligand binding, human melanocortin MC3 membranes, FlashPlate, [125I]-NDP-αMSH
T3 construct: purchased Perkin Elmer Biosignal
How it was run: as §1

Human Melanocortin (MC4) = molecular target: T4, Human Melanocortin (MC4) (Homo sapiens, UniProt P32245); assay: Radioligand binding, human melanocortin MC4 membranes, FlashPlate, [125I]-NDP-αMSH
T4 construct: purchased Perkin Elmer Biosignal
How it was run: as §1

Human melanocortin (MC5) = molecular target: T5, Human melanocortin (MC5) (Homo sapiens, UniProt P33032); assay: Radioligand binding, human melanocortin MC5 membranes, FlashPlate, [125I]-NDP-αMSH
T5 construct: purchased Perkin Elmer Biosignal
How it was run: as §1

[1] = molecular target: T6, Human melanin-concentrating hormone (MCH1) (Homo sapiens, UniProt Q99705); assay: Radioligand binding, human melanin-concentrating hormone MCH1 membranes, FlashPlate, [125I]-S36057
T6 construct: purchased Perkin Elmer Biosignal
How it was run: as §1

Human μ-opioid (MOP) = molecular target: T7, Human μ-opioid (MOP) (Homo sapiens, UniProt P35372); assay: Radioligand binding, human μ-opioid (MOP) membranes, FlashPlate, [3H]-Naloxone
T7 construct: purchased Perkin Elmer Biosignal
How it was run: as §1

Human neurokinin (NK1) = molecular target: T8, Human neurokinin (NK1) (Homo sapiens, UniProt P25103); assay: Radioligand binding, human neurokinin NK1 membranes, filtration, [125I]-Substance P
T8 construct: purchased Perkin Elmer Biosignal
How it was run: as §2

[2] = molecular target: T9, Human neuropeptide Y (NPY-Y1) (Homo sapiens, UniProt P25929); assay: Radioligand binding, human neuropeptide Y NPY-Y1 membranes, FlashPlate, [125I]-PYY
T9 construct: purchased Perkin Elmer Biosignal
T9 sequence (P25929 1-384): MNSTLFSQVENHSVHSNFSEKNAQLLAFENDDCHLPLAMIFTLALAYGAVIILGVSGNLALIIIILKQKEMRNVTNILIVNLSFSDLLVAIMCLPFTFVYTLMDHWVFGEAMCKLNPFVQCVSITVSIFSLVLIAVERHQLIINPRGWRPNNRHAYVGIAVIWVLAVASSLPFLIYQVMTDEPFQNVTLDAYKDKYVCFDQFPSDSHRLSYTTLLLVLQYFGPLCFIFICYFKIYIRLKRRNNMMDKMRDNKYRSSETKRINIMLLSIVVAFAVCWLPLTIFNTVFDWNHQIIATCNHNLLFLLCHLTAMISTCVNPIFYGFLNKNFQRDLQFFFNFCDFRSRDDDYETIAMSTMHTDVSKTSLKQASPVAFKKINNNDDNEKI
How it was run: as §1

Human opioid (ORL1) = molecular target: T10, Human opioid (ORL1) (Homo sapiens, UniProt P41146); assay: Radioligand binding, human opioid ORL1 membranes, FlashPlate, [125I]-Nociceptin
T10 construct: purchased Perkin Elmer Biosignal
How it was run: as §1

Mouse urotensin (mUR2) = molecular target: T11, Mouse urotensin (mUR2) (Mus musculus, UniProt Q8VIH9); assay: Radioligand binding, mouse urotensin mUR2 membranes, FlashPlate, [125I]-Urotensin II
T11 construct: purchased Perkin Elmer Biosignal
T11 sequence (Q8VIH9 1-385): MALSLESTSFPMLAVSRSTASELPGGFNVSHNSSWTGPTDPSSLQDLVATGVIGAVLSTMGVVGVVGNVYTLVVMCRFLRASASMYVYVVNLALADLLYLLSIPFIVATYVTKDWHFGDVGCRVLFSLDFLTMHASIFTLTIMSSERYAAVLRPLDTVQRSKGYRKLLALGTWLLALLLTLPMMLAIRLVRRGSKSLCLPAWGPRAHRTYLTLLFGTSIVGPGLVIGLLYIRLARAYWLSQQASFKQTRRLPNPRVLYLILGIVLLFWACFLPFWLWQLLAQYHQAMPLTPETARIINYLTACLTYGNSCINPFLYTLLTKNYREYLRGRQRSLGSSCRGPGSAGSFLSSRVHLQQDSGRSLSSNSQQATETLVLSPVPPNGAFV
How it was run: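 Cloned mouse urotensin (mUR2) receptor membranes from Perkin Elmer Biosignal were immobilized in FlashPlate microplates using a proprietary coating. Each well got 19.5 μl buffer, then 0.5 μl of DMSO, reference ligand, or compound. Adding 5 μl of [125I]-Urotensin II, diluted to 5× final concentration in binding buffer, started binding. Plates were sealed with TopSeal-A and incubated 1 hour at room temperature in the dark. Wells were counted for 30 seconds each on a TopCount after a 60-second delay, and percentage inhibition was calculated.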

T8 sequence (P25103 whole entry): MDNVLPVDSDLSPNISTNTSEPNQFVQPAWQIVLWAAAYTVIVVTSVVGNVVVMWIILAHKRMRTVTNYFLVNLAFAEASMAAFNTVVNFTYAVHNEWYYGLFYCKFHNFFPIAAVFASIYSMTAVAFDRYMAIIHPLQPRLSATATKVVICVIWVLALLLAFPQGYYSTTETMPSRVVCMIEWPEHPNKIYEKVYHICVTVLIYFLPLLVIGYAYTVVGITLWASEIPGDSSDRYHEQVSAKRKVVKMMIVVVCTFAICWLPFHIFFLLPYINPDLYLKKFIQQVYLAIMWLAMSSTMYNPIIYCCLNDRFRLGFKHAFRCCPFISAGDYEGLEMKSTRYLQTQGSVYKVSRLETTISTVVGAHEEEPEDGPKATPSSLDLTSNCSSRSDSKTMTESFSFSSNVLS
T6 sequence (Q99705 whole entry): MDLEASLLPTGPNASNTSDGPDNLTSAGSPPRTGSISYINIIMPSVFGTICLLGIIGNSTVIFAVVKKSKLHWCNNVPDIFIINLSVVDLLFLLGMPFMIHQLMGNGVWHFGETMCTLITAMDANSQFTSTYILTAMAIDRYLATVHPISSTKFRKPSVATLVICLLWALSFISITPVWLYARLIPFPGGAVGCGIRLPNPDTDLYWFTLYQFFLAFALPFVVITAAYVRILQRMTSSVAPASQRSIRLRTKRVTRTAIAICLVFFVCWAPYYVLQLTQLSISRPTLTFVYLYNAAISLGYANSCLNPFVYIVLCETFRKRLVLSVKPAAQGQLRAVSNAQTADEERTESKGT
T4 sequence (P32245 whole entry): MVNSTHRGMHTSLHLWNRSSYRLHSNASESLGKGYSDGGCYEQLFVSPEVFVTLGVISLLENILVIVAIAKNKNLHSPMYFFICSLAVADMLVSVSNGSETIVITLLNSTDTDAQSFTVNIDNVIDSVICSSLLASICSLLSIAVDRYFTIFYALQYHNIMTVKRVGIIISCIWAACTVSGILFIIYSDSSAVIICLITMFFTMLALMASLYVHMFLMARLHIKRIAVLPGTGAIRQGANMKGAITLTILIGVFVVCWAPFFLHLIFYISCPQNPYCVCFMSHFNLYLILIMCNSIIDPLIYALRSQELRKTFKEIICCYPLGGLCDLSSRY
T10 sequence (P41146 whole entry): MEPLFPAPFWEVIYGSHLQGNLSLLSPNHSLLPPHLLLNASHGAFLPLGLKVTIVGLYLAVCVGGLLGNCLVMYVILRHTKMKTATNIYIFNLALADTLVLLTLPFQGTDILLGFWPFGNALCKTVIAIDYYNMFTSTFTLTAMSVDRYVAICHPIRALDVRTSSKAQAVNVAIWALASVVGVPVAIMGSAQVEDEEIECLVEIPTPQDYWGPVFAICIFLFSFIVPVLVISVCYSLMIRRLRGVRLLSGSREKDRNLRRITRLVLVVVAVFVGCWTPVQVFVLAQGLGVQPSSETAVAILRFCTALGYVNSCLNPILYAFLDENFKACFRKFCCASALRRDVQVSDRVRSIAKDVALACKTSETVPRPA
T1 sequence (P41143 whole entry): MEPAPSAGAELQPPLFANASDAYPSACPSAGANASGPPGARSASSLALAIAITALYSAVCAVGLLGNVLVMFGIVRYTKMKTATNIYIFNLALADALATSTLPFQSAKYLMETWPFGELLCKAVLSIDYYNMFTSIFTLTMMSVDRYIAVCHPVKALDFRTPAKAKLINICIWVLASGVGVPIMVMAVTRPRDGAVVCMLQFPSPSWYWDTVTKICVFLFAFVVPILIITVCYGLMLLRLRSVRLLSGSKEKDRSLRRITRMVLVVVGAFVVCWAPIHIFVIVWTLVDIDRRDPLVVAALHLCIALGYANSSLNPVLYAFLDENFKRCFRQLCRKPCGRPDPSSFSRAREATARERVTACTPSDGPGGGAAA
T3 sequence (P41968 whole entry): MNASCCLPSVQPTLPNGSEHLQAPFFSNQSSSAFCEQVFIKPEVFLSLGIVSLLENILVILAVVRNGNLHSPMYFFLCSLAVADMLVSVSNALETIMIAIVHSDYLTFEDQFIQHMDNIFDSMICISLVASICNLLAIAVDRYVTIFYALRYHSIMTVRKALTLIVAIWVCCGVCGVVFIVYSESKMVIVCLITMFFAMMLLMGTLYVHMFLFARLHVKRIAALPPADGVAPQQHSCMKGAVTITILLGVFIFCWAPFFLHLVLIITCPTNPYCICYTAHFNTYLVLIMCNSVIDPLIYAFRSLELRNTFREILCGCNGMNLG
T7 sequence (P35372 whole entry): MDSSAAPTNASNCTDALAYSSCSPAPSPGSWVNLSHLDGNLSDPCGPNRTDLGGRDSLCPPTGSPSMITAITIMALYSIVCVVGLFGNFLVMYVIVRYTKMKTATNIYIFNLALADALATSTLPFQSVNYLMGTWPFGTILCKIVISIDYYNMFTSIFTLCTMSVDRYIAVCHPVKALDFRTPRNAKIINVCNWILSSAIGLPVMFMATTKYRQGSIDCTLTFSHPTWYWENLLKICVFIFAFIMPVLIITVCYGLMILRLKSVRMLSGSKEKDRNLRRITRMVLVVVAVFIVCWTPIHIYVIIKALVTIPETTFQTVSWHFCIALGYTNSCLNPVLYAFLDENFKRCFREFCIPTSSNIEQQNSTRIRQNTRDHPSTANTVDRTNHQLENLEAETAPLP
T5 sequence (P33032 whole entry): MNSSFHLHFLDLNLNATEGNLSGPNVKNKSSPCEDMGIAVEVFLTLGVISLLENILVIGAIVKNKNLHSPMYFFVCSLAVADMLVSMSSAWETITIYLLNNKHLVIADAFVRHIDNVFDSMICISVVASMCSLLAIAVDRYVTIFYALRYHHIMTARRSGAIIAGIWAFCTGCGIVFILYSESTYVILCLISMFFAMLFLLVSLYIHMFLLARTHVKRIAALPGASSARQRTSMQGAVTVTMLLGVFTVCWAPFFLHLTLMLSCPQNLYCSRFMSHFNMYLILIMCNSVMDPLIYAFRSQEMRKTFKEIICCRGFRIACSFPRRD
T2 sequence (P41145 whole entry): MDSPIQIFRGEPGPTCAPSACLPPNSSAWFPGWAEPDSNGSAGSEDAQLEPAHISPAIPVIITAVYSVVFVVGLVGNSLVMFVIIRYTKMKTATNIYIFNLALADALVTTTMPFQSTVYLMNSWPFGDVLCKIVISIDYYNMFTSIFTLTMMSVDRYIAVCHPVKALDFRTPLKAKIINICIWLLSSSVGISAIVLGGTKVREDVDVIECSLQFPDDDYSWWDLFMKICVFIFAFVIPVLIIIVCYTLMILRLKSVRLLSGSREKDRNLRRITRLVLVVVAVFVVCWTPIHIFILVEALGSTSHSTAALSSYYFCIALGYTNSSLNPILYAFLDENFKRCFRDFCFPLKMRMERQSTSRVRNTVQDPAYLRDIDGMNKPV

Structure (SMILES): COCC1OC(OCc2ccccc2)C(NC(=O)CNC(=N)N)C(OCc2ccc3ccccc3c2)C1O (stereo not drawn) [compound 189]
- A1: inhibition of radioligand binding (Human δ-opioid (DOP); [3H]-Bremazocine, FlashPlate): − (“−” indicates less than 50% inhibition at 10 μM)
- A2: inhibition of radioligand binding (Human κ-Opioid (KOP); [3H]-Diprenorphine, filtration): − (“−” indicates less than 50% inhibition at 10 μM)
- A3: inhibition of radioligand binding (Human Melanocortin (MC3); [125I]-NDP-αMSH, FlashPlate): + (“+” indicates greater than 50% inhibition at 10 μM)
- A4: inhibition of radioligand binding (Human Melanocortin (MC4); [125I]-NDP-αMSH, FlashPlate): + (“+” indicates greater than 50% inhibition at 10 μM)
- A5: inhibition of radioligand binding (Human melanocortin (MC5); [125I]-NDP-αMSH, FlashPlate): + (“+” indicates greater than 50% inhibition at 10 μM)
- A6: inhibition of radioligand binding ([1]; [125I]-S36057, FlashPlate): + (“+” indicates greater than 50% inhibition at 10 μM)
- A7: inhibition of radioligand binding (Human μ-opioid (MOP); [3H]-Naloxone, FlashPlate): − (“−” indicates less than 50% inhibition at 10 μM)
- A8: inhibition of radioligand binding (Human neurokinin (NK1); [125I]-Substance P, filtration): + (“+” indicates greater than 50% inhibition at 10 μM)
- A9: inhibition of radioligand binding ([2]; [125I]-PYY, FlashPlate): − (“−” indicates less than 50% inhibition at 10 μM)
- A10: inhibition of radioligand binding (Human opioid (ORL1); [125I]-Nociceptin, FlashPlate): − (“−” indicates less than 50% inhibition at 10 μM)
- A11: inhibition of radioligand binding (Mouse urotensin (mUR2); [125I]-Urotensin II, FlashPlate): − (“−” indicates less than 50% inhibition at 10 μM)

Structure (SMILES): CO[C@H]1[C@H](O)[C@@H](COCc2ccc(Cl)cc2)OC(OCc2ccc3ccccc3c2)[C@@H]1NC(=O)CCNC(=N)N (stereo partly drawn) [compound 79]
- A1 radioligand binding inhibition (Human δ-opioid (DOP); human δ-opioid (DOP) membranes): − (“−” indicates less than 50% inhibition at 10 μM)
- A2 radioligand binding inhibition (Human κ-Opioid (KOP); human κ-opioid (KOP) membranes): − (“−” indicates less than 50% inhibition at 10 μM)
- A3 radioligand binding inhibition (Human Melanocortin (MC3); human melanocortin MC3 membranes): − (“−” indicates less than 50% inhibition at 10 μM)
- A4 radioligand binding inhibition (Human Melanocortin (MC4); human melanocortin MC4 membranes): + (“+” indicates greater than 50% inhibition at 10 μM)
- A5 radioligand binding inhibition (Human melanocortin (MC5); human melanocortin MC5 membranes): + (“+” indicates greater than 50% inhibition at 10 μM)
- A6 radioligand binding inhibition ([1]; human MCH1 membranes): − (“−” indicates less than 50% inhibition at 10 μM)
- A7 radioligand binding inhibition (Human μ-opioid (MOP); human μ-opioid (MOP) membranes): + (“+” indicates greater than 50% inhibition at 10 μM)
- A8 radioligand binding inhibition (Human neurokinin (NK1); human neurokinin NK1 membranes): + (“+” indicates greater than 50% inhibition at 10 μM)
- A9 radioligand binding inhibition ([2]; human NPY-Y1 membranes): − (“−” indicates less than 50% inhibition at 10 μM)
- A10 radioligand binding inhibition (Human opioid (ORL1); human ORL1 membranes): − (“−” indicates less than 50% inhibition at 10 μM)
- A11 radioligand binding inhibition (Mouse urotensin (mUR2); mouse urotensin mUR2 membranes): − (“−” indicates less than 50% inhibition at 10 μM)

Structure (SMILES): CO[C@H]1[C@H](O)[C@@H](COCc2ccc3ccccc3c2)OC(OCc2ccc(Cl)cc2)[C@@H]1NC(=O)C1CCN(C(=N)N)CC1 (stereo partly drawn) [compound 354]
- A1: inhibition of radioligand binding, human δ-opioid (DOP) (Human δ-opioid (DOP); [3H]-Bremazocine): − (“−” indicates less than 50% inhibition at 10 μM)
- A2: inhibition of radioligand binding, human κ-opioid (KOP) (Human κ-Opioid (KOP); [3H]-Diprenorphine): − (“−” indicates less than 50% inhibition at 10 μM)
- A3: inhibition of radioligand binding, human melanocortin (MC3) (Human Melanocortin (MC3); [125I]-NDP-αMSH): − (“−” indicates less than 50% inhibition at 10 μM)
- A4: inhibition of radioligand binding, human melanocortin (MC4) (Human Melanocortin (MC4); [125I]-NDP-αMSH): + (“+” indicates greater than 50% inhibition at 10 μM)
- A5: inhibition of radioligand binding, human melanocortin (MC5) (Human melanocortin (MC5); [125I]-NDP-αMSH): + (“+” indicates greater than 50% inhibition at 10 μM)
- A6: inhibition of radioligand binding, human melanin-concentrating hormone (MCH1) ([1]; [125I]-S36057): − (“−” indicates less than 50% inhibition at 10 μM)
- A7: inhibition of radioligand binding, human μ-opioid (MOP) (Human μ-opioid (MOP); [3H]-Naloxone): − (“−” indicates less than 50% inhibition at 10 μM)
- A8: inhibition of radioligand binding, human neurokinin (NK1) (Human neurokinin (NK1); [125I]-Substance P): + (“+” indicates greater than 50% inhibition at 10 μM)
- A9: inhibition of radioligand binding, human neuropeptide Y (NPY-Y1) ([2]; [125I]-PYY): − (“−” indicates less than 50% inhibition at 10 μM)
- A10: inhibition of radioligand binding, human opioid (ORL1) (Human opioid (ORL1); [125I]-Nociceptin): − (“−” indicates less than 50% inhibition at 10 μM)
- A11: inhibition of radioligand binding, mouse urotensin (mUR2) (Mouse urotensin (mUR2); [125I]-Urotensin II): − (“−” indicates less than 50% inhibition at 10 μM)
